Measured values reported in patent publication EP0321273A2, “Thioformamide derivatives” (RHONE POULENC RORER LIMITED, priority 1987, dated 1989).

Columns and labels:
isolated rat aorta [1] = test: Test B: activity against contractions induced by high K+ concentrations (60 mM K+) in isolated rat aorta; assay type: cell-based; settings: contraction induced by 60 mM K⁺; rat thoracic aorta strips denuded of endothelium, cumulative addition; read-out: concentration in the bath reducing the K⁺-induced contraction by 90%
Protocol: (§1) The test methods used were adapted from those described by Winslow et al [Eur.J.Pharmacol., 131, 219-228 (1986)] and Karaki [J.Pharmacol. Methods, 18, 1-21 (1987)] for differentiating vaso-relaxant activity.
Test B : Activity against contractions induced by high K⁺ concentrations in isolated rat aorta
The test method was as in Test A except that contractions were induced by addition of 60 mM K⁺ to the bathing solution. The cumulative addition of solutions of the test compound was conducted and the concentration in the bath reducing the K⁺-induced contraction by 90% was greater than 30µM for Compounds C, D, E, F, I, J and K, and much greater than 30µM for Compound A. Table I

isolated rat aorta [2] = test: Test A: activity against contractions induced by low K+ concentrations (20 mM K+) in the isolated rat aorta; assay type: cell-based; settings: concentration reducing the contraction induced by 20 mM K⁺ by 90%; rat thoracic aorta strips denuded of endothelium, Krebs solution, cumulative concentrations; read-out: Activity Test A EC₉₀
Protocol: as §1
Test A : Activity against contractions induced by low K⁺ concentrations in the isolated rat aorta
Thoracic aorta was removed from rats and transverse strips, denuded of endothelium, were suspended in a bath containing Krebs solution. The tension was recorded and a contraction induced by addition of 20 mM K⁺ (potassium ion) to the bathing solution. The test compound was added to the bath as a solution in increasing cumulative concentration. The concentration in the bathing solution of the test compound which reduced the K⁺-induced contraction by 90% was determined and expressed in µM as the effective concentration (EC₉₀), given in Table I.

Row | IC90 (isolated rat aorta [1]) | EC90 (isolated rat aorta [2]) | Compound
1 | > 30 µM | 20 µM | CNC(=S)C1(c2ccccc2)CCCCC1=NOC (racemic) [Compound D, (±)-anti-N-methyl-2-methoxyimino-1-phenylcyclohexanecarbothioamide]
2 | > 30 µM | 0.9 µM | CNC(=S)C1(c2cccc(C(F)(F)F)c2)CCCCC1=O (racemic) [F, (±)-N-methyl-2-oxo-1-(3-trifluoromethylphenyl)cyclohexanecarbothioamide]
3 | – | 0.6 µM | CNC(=S)C1(c2ccccc2)CCCCC1=NOCc1ccc(F)cc1 (racemic) [H, (±)-anti-N-methyl-2-(4-fluorobenzyloxyimino)-1-phenylcyclohexanecarbothioamide]
4 | > 30 µM | 2 µM | CNC(=S)C1(c2ccc3ccccc3c2)CCCCC1=O (racemic) [I, (±)-N-methyl-2-oxo-1-(2-naphthyl)cyclohexanecarbothioamide]
5 | > 30 µM | 0.4 µM | CNC(=S)C1(c2ccc(Cl)c(Cl)c2)CCCCC1=O (racemic) [J, (±)-N-methyl-2-oxo-1-(3,4-dichlorophenyl)cyclohexanecarbothioamide]

Further lines, the molecule ahead of its results:

Row | Compound | IC90 (isolated rat aorta [1]) | EC90 (isolated rat aorta [2])
6 | CNC(=S)C1(c2ccccc2)CCCCC1=O (racemic) [Compound A, (±)-N-methyl-2-oxo-1-phenylcyclohexanecarbothioamide] | > 30 µM | 29 µM
7 | CNC(=S)C1(c2ccccc2)CCCCC1=NO (racemic) [Compound C, (±)-anti-N-methyl-2-hydroxyimino-1-phenylcyclohexanecarbothioamide] | > 30 µM | > 30 µM
8 | CNC(=S)C1(c2cccc([N+](=O)[O-])c2)CCCCC1=O (racemic) [Compound K, (±)-N-methyl-2-oxo-1-(3-nitrophenyl)cyclohexanecarbothioamide] | > 30 µM | 0.7 µM
9 | CNC(=S)C1(c2ccc(Cl)cc2)CCCCC1=O (racemic) [E, (±)-N-methyl-2-oxo-1-(4-chlorophenyl)cyclohexanecarbothioamide] | > 30 µM | 12 µM
